Ends that are not written are not given here. * marks the point of attachment. Myristoyl = CCCCCCCCCCCCCC(=O)*
Experiments:
sebum production = conditions: background statement; cited from earlier work
sebaceous glands = assay: Sebum production and maturation of sebaceous glands in newborn BalbC mice topically treated with visfatin antagonist siRNAs (Oil Red O, H&E, gland counts); assay type: in vivo, Mus musculus; conditions: siRNA free second control solution (PBS, 0.1% DMSO, 1 μg/ml MPDY), day 5 after birth
Protocol: Hematoxylin & Eosin Staining: Paraffin embedded skin biopsy section slides were incubated at 60° C. for 60 minutes and deparaffinized by washing the slides twice with toluene (100%) for 10 minutes and rehydrating the skin biopsy section slides in decreasing concentration of ethanol (100-50%) for 5 minutes each. The slides then were stained with a ready to use solution of hematoxylin for 5 minutes, rinsed with water, stained with eosin (0.5% in double distilled water) for 1.5 minutes and washed twice by rapid immersion in 70% ethanol. Thereafter, the slides were dehydrated by washing once with 95% ethanol for 5 minutes, twice with 100% ethanol for 5 minutes and twice with xylene (100%) for 10 minutes. This was followed by the application of ENTELLAN™ (Merck KGaA, Darmstadt, Germany) and the mounting of coverslips.
Oil Red O Staining: Frozen skin biopsy section slides were fixed in 1% neutral-buffered formalin for 5 minutes, washed in deionized water, and incubated in 60% isopropanol for 5 minutes. Skin biopsy section slides were stained with a fresh, filtered Oil Red O working solution which had been prepared immediately beforehand by making a 2:3 mixture of stock (0.5% Oil Red O in 99% isopropanol) and deionized water. […]

Compound	decrease of sebum production (sebum production)	effect of peptide alone on sebum production and skin (sebaceous glands)
CC1=C(/C=C/C(C)=C/C=C/C(C)=C\C(=O)O)C(C)(C)CCC1 [Isotretinoin]	up to 90%	
MPDY: cationic, lipophilic, N-myristoylated peptide having the amino acid sequence FARKGALRQ (SEQ ID NO: 27) (Myristoyl-FARKGALRQ)		did not inhibit sebum production or otherwise discernibly alter the skin
